Experiments:
T. mobilensis lectin = assay: Inhibition of T. mobilensis lectin-mediated hemagglutination; format: biochemical, Tritrichomonas mobilensis; settings: for Minimal Inhibitory Conc.: 2 units of hemagglutinin
[1] = system: T. foetus cell-free lysate hemagglutinin; assay: Inhibition of HA activity of T. foetus cell-free lysate; format: biochemical, Tritrichomonas foetus
[2] = system: T. mobilensis cell-free lysate hemagglutinin; assay: Inhibition of HA activity of T. mobilensis cell-free lysate; format: biochemical, Tritrichomonas mobilensis
[3] = system: T. augusta cell-free lysate hemagglutinin; assay: Inhibition of HA activity of T. augusta cell-free lysate; format: biochemical, Tritrichomonas augusta
live T. mobilensis = assay: Slide agglutination of live T. mobilensis by lectins; format: cell-based, Tritrichomonas mobilensis; settings: carbohydrate 100 mM
Description: Agglutination of live T. mobilensis with lectins with various carbohydrate binding specificities was performed by a slide agglutination assay. Lectin Kit LK-2000 (Vector Laboratories) consisted of the following lectins: concanavalin A (ConA), wheat germ agglutinin (WGA), soybean agglutinin (SBA), gorse seed agglutinin (UEA-1), castor bean agglutinin type 1 (RCA-1), peanut agglutinin (PNA), and horse gram agglutinin (DBA). Limulus polyphemus lectin (LPA) was obtained from Sigma, and Limax flavus (LFA) agglutinin from EY Labs. Lectins and specific carbohydrates were dissolved in buffers recommended by the manufacturers. Twenty five μl of washed T. mobilensis (about 2×10^7 /ml) were placed onto a glass slide. An equal volume of lectin (200 μg/ml) or lectin with specific carbohydrate (final concentration, 100 mM) was added. After mixing for 2 to 3 min, the agglutination was evaluated under a microscope.

live cells of T. foetus = assay: Inhibition of HA by live cells of T. foetus; format: cell-based, Tritrichomonas foetus
[4] = system: T. mobilensis hemolysis of erythrocytes; assay: Whole organism hemolysis assay, inhibition; format: cell-based, Tritrichomonas mobilensis
Source text: Tritrichomonas mobilensis, an enteric parasite of squirrel monkeys, adheres readily to isolated monkey intestinal epithelial cells and agglutinates human erythrocytes in vitro. These activities are mediated by a sialic acid binding lectin. Hemagglutination by either parasites or purified lectin is inhibited by N-acetylneuraminic acid and anti-lectin monoclonal antibody (MAB), but not by 2,3-dehydro-2-desoxy-N-acetylneuraminic acid, a neuraminidase inhibitor. T. mobilensis hemolyzes erythrocytes in a modification of a previously published whole organism hemolysis assay. Hemolysis is inhibited by N-acetylneuraminic acid, 2,3-dehydro-2-desoxy-N-acetylneuraminic acid, anti-lectin MAB, T. mobilensis lectin and other sialic acid binding lectins, fetuin, and colominic acid, but not by asialofetuin, or leupeptin. Desialated erythrocytes are neither agglutinated nor hemolyzed.

OC[C@H]1O[C@H](O[C@H]2[C@H](O)[C@@H](O)C(O)O[C@@H]2CO)[C@H](O)[C@@H](O)[C@@H]1O (mixture of isomers) [Maltose]
Minimal Inhibitory Conc. (T. mobilensis lectin; carbohydrates): > 100 mM

CC(=O)NC1C(O)CC(OC2C(O)C(CO)OC(OC3C(CO)OC(O)C(O)C3O)C2O)(C(=O)O)OC1C(O)C(O)CO (stereo not shown) [3'-sialyllactose]
Minimal Inhibitory Conc. (T. mobilensis lectin; carbohydrates): 2.0 mM

CC(=O)NC1C(O)CC(OCC2OC(OC3C(CO)OC(O)C(O)C3O)C(O)C(O)C2O)(C(=O)O)OC1C(O)C(O)CO (stereo not shown) [6'-sialyllactose]
Minimal Inhibitory Conc. (T. mobilensis lectin; carbohydrates): 1.0 mM

OC1OC[C@@H](O)[C@@H](O)[C@@H]1O (stereo partly drawn) [D-arabinose]
Conc. required to inhibit 2 HA units, T. foetus ([1]; carbohydrates, […]): > 200 µg/mL
Conc. required to inhibit 2 HA units, T. mobilensis ([2]; carbohydrates, […]): > 200 µg/mL
Minimal Inhibitory Conc. (T. mobilensis lectin; carbohydrates): > 100 mM
Conc. required to inhibit 2 HA units, T. augusta ([3]; carbohydrates, […]): > 200 µg/mL

O=C(CO)[C@@H](O)[C@H](O)[C@H](O)CO [D-fructose]
Conc. required to inhibit 2 HA units, T. foetus ([1]; carbohydrates, […]): > 200 µg/mL
Conc. required to inhibit 2 HA units, T. mobilensis ([2]; carbohydrates, […]): > 200 µg/mL
Minimal Inhibitory Conc. (T. mobilensis lectin; carbohydrates): > 100 mM
Conc. required to inhibit 2 HA units, T. augusta ([3]; carbohydrates, […]): > 200 µg/mL

C[C@H]1OC(O)[C@H](O)[C@@H](O)[C@H]1O (stereo partly drawn) [D-fucose]
Conc. required to inhibit 2 HA units, T. foetus ([1]; carbohydrates, […]): > 200 µg/mL
Conc. required to inhibit 2 HA units, T. mobilensis ([2]; carbohydrates, […]): > 200 µg/mL
Minimal Inhibitory Conc. (T. mobilensis lectin; carbohydrates): > 100 mM
Effect of specific carbohydrate on agglutinating activity of the appropriate lectin (live T. mobilensis): abolished agglutinating activity
Conc. required to inhibit 2 HA units, T. augusta ([3]; carbohydrates, […]): > 200 µg/mL

OC[C@H]1OC(O)[C@H](O)[C@@H](O)[C@H]1O (stereo partly drawn) [D-galactose]
Conc. required to inhibit 2 HA units, T. foetus ([1]; carbohydrates, […]): > 200 µg/mL
Conc. required to inhibit 2 HA units, T. mobilensis ([2]; carbohydrates, […]): > 200 µg/mL
Minimal Inhibitory Conc. (T. mobilensis lectin; carbohydrates): > 100 mM
Effect of specific carbohydrate on agglutinating activity of the appropriate lectin (live T. mobilensis): abolished agglutinating activity
Conc. required to inhibit 2 HA units, T. augusta ([3]; carbohydrates, […]): > 200 µg/mL

O=C(O)[C@H]1OC(O)[C@H](O)[C@@H](O)[C@H]1O (stereo partly drawn) [D-galacturonic acid]
Minimal Inhibitory Conc. (T. mobilensis lectin; carbohydrates): > 100 mM

OC[C@H]1OC(O)[C@H](O)[C@@H](O)[C@@H]1O (stereo partly drawn) [D-glucose]
Conc. required to inhibit 2 HA units, T. foetus ([1]; carbohydrates, […]): > 200 µg/mL
Conc. required to inhibit 2 HA units, T. mobilensis ([2]; carbohydrates, […]): > 200 µg/mL
Minimal Inhibitory Conc. (T. mobilensis lectin; carbohydrates): > 100 mM
Conc. required to inhibit 2 HA units, T. augusta ([3]; carbohydrates, […]): > 200 µg/mL

OC[C@H]1OC(O)[C@@H](O)[C@@H](O)[C@@H]1O (stereo partly drawn) [D-mannose]
Conc. required to inhibit 2 HA units, T. foetus ([1]; carbohydrates, […]): > 200 µg/mL
Conc. required to inhibit 2 HA units, T. mobilensis ([2]; carbohydrates, […]): > 200 µg/mL
Minimal Inhibitory Conc. (T. mobilensis lectin; carbohydrates): > 100 mM
Effect of specific carbohydrate on agglutinating activity of the appropriate lectin (live T. mobilensis): abolished agglutinating activity
Conc. required to inhibit 2 HA units, T. augusta ([3]; carbohydrates, […]): > 200 µg/mL

OC1OC[C@@H](O)[C@H](O)[C@H]1O (stereo partly drawn) [D-xylose]
Conc. required to inhibit 2 HA units, T. foetus ([1]; carbohydrates, […]): > 200 µg/mL
Conc. required to inhibit 2 HA units, T. mobilensis ([2]; carbohydrates, […]): > 200 µg/mL
Minimal Inhibitory Conc. (T. mobilensis lectin; carbohydrates): > 100 mM
Conc. required to inhibit 2 HA units, T. augusta ([3]; carbohydrates, […]): > 200 µg/mL

O=P(O)(O)OC[C@H]1OC(O)[C@@H](O)[C@@H](O)[C@@H]1O (stereo partly shown) [Mannose-6-phosphate]
Minimal Inhibitory Conc. (T. mobilensis lectin; carbohydrates): > 100 mM

CC(=O)N[C@H]1[C@H](O[C@H]2[C@H](O)[C@@H](NC(C)=O)C(O)O[C@@H]2CO)O[C@H](CO)[C@@H](O)[C@@H]1O (stereo partly shown) [N,N-diacetyl chitobiose]
Minimal Inhibitory Conc. (T. mobilensis lectin; carbohydrates): > 100 mM

CC(=O)N[C@H]1[C@@H](O)[C@H](O)[C@@H](CO)O[C@H]1O [N-acetyl-β-D-mannosamine]
Minimal Inhibitory Conc. (T. mobilensis lectin; carbohydrates): > 100 mM

CC(=O)N[C@H]1C(O)O[C@H](CO)[C@H](O)[C@@H]1O (stereo partly shown) [N-acetylgalactosamine]
Conc. required to inhibit 2 HA units, T. foetus ([1]; carbohydrates, […]): > 200 µg/mL
Conc. required to inhibit 2 HA units, T. mobilensis ([2]; carbohydrates, […]): > 200 µg/mL
Minimal Inhibitory Conc. (T. mobilensis lectin; carbohydrates): > 100 mM
Effect of specific carbohydrate on agglutinating activity of the appropriate lectin (live T. mobilensis): abolished agglutinating activity
Conc. required to inhibit 2 HA units, T. augusta ([3]; carbohydrates, […]): > 200 µg/mL

CC(=O)N[C@H]1C(O)O[C@H](CO)[C@@H](O)[C@@H]1O (stereo partly shown) [N-acetylglucosamine]
Conc. required to inhibit 2 HA units, T. foetus ([1]; carbohydrates, […]): > 200 µg/mL
Conc. required to inhibit 2 HA units, T. mobilensis ([2]; carbohydrates, […]): > 200 µg/mL
Minimal Inhibitory Conc. (T. mobilensis lectin; carbohydrates): > 100 mM
Effect of specific carbohydrate on agglutinating activity of the appropriate lectin (live T. mobilensis): abolished agglutinating activity
Conc. required to inhibit 2 HA units, T. augusta ([3]; carbohydrates, […]): > 200 µg/mL

CC(=O)N[C@H]1C(O)O[C@H](CO)[C@@H](O)[C@@H]1O[C@H](C)C(=O)O (stereo partly shown) [N-acetylmuramic acid]
Minimal Inhibitory Conc. (T. mobilensis lectin; carbohydrates): > 100 mM

COC1(C(=O)O)CC(O)C(NC(C)=O)C(C(O)C(O)CO)O1 (stereo not drawn) [N-acetylneruaminic acid β-methyl glycoside]
Minimal Inhibitory Conc. (T. mobilensis lectin; carbohydrates): > 100 mM

COC(=O)C1(OC)CC(O)C(NC(C)=O)C(C(O)C(O)CO)O1 (stereo not drawn) [N-acetylneuraminic acid methyl ester, β-methyl glycoside]
Minimal Inhibitory Conc. (T. mobilensis lectin; carbohydrates): > 100 mM

OC[C@H]1O[C@@](CO)(O[C@H]2O[C@H](CO)[C@@H](O)[C@H](O)[C@H]2O)[C@@H](O)[C@@H]1O [Sucrose]
Conc. required to inhibit 2 HA units, T. foetus ([1]; carbohydrates, […]): > 200 µg/mL
Conc. required to inhibit 2 HA units, T. mobilensis ([2]; carbohydrates, […]): > 200 µg/mL
Minimal Inhibitory Conc. (T. mobilensis lectin; carbohydrates): > 100 mM
Conc. required to inhibit 2 HA units, T. augusta ([3]; carbohydrates, […]): > 200 µg/mL

O=P(O)(O)OC1O[C@H](CO)[C@@H](O)[C@H](O)[C@@H]1O (stereo partly shown) [mannose-1-phosphate]
Minimal Inhibitory Conc. (T. mobilensis lectin; carbohydrates): > 100 mM

Avidin: glycoprotein or protein tested as inhibitor
Minimal Inhibitory Conc. (T. mobilensis lectin; glycoproteins or proteins): > 1000 µg/mL

Bovine Albumin: glycoprotein or protein tested as inhibitor
Minimal Inhibitory Conc. (T. mobilensis lectin; glycoproteins or proteins): > 1000 µg/mL

Bovine submaxillary mucin
Conc. required to inhibit 2 HA units, T. foetus ([1]; sialoglycoproteins): 60 µg/mL
Conc. required to inhibit 2 HA units, T. mobilensis ([2]; sialoglycoproteins): 60 µg/mL
Minimal Inhibitory Conc. (T. mobilensis lectin; glycoproteins or proteins): 0.65 µg/mL
Conc. required to Inhibit 2 HA Units (live cells of T. foetus): 125 µg/mL
Conc. required to inhibit 2 HA units, T. augusta ([3]; sialoglycoproteins): 40 µg/mL

Egg Albumin: glycoprotein or protein tested as inhibitor
Minimal Inhibitory Conc. (T. mobilensis lectin; glycoproteins or proteins): > 1000 µg/mL

Fibronectin
Minimal Inhibitory Conc. (T. mobilensis lectin; glycoproteins or proteins): > 333 µg/mL

GD1A
Inhibition of hemagglutination by gangliosides (T. mobilensis lectin; at mg/ml concentrations): did not inhibit

Laminin
Minimal Inhibitory Conc. (T. mobilensis lectin; glycoproteins or proteins): 6.8 µg/mL

Lysozyme: glycoprotein or protein tested as inhibitor
Minimal Inhibitory Conc. (T. mobilensis lectin; glycoproteins or proteins): > 1000 µg/mL

Orosomucoid: sialoconjugate (sialoglycoprotein)
Conc. required to inhibit 2 HA units, T. foetus ([1]; sialoglycoproteins): 150 µg/mL
Conc. required to inhibit 2 HA units, T. mobilensis ([2]; sialoglycoproteins): 150 µg/mL
Conc. required to Inhibit 2 HA Units (live cells of T. foetus): 500 µg/mL
Conc. required to inhibit 2 HA units, T. augusta ([3]; sialoglycoproteins): 150 µg/mL

colominic acid
Inhibition of hemolysis [4]: inhibited

glucuronic acid
Minimal Inhibitory Conc. (T. mobilensis lectin; carbohydrates): > 100 mM

B1: Asialofetuin: asialo- analog of fetuin (protein, UniProt P12763 19-359, looked up)
Alpha-2-HS-glycoprotein: IPLDPVAGYKEPACDDPDTEQAALAAVDYINKHLPRGYKHTLNQIDSVKVWPRRPTGEVYDIEIDTLETTCHVLDPTPLANCSVRQQTQHAVEGDCDIHVLKQDGQFSVLFTKCDSSPDSAEDVRKLCPDCPLLAPLNDSRVVHAVEVALATFNAESNGSYLQLVEISRAQFVPLPVSVSVEFAVAATDCIAKEVVDPTKCNLLAEKQYGFCKGSVIQKALGGEDVRVTCTLFQTQPVIPQPQPDGAEAEAPSAVPDAAGPTPSAAGPPVASVVVGPSVVAVPLPLHRAHYDLRHTFSGVASVESSSGEAFHVGKTPIVGQPSIPGGPVRLCPGRIRYFKI
modifications: desialylated
notes: asialo- analog of fetuin
Minimal Inhibitory Conc. (T. mobilensis lectin; glycoproteins or proteins): 26.0 µg/mL

B2: Glycophorin: a major sialoglycoprotein of erythrocyte membranes (protein, UniProt P02724 20-150, looked up)
Glycophorin-A: LSTTEVAMHTSTSSSVTKSYISSQTNDTHKRDTYAATPRAHEVSEISVRTVYPPEEETGERVQLAHHFSEPEITLIIFGVMAGVIGTILLISYGIRRLIKKSPSDVKPLPSPDTDVPLSSVEIENPETSDQ
Conc. required to inhibit 2 HA units, T. foetus ([1]; sialoglycoproteins): 10 µg/mL
Conc. required to inhibit 2 HA units, T. mobilensis ([2]; sialoglycoproteins): 10 µg/mL
Minimal Inhibitory Conc. (T. mobilensis lectin; glycoproteins or proteins): 0.42 µg/mL
Conc. required to Inhibit 2 HA Units (live cells of T. foetus): 10 µg/mL
Conc. required to inhibit 2 HA units, T. augusta ([3]; sialoglycoproteins): 10 µg/mL

B3: Asialoglycophorin: glycophorin lacking the sialic acid (protein, UniProt P02724 20-150, looked up)
Glycophorin-A: LSTTEVAMHTSTSSSVTKSYISSQTNDTHKRDTYAATPRAHEVSEISVRTVYPPEEETGERVQLAHHFSEPEITLIIFGVMAGVIGTILLISYGIRRLIKKSPSDVKPLPSPDTDVPLSSVEIENPETSDQ
modifications: desialylated
notes: glycophorin lacking the sialic acid
Conc. required to inhibit 2 HA units, T. foetus ([1]; sialoglycoproteins): 500 µg/mL
Conc. required to inhibit 2 HA units, T. mobilensis ([2]; sialoglycoproteins): 500 µg/mL
Minimal Inhibitory Conc. (T. mobilensis lectin; glycoproteins or proteins): 83.3 µg/mL
Conc. required to Inhibit 2 HA Units (live cells of T. foetus): 500 µg/mL
Conc. required to inhibit 2 HA units, T. augusta ([3]; sialoglycoproteins): 500 µg/mL
